Values of other authors as cited in patent US6476071B1, “Correcting polymorphic metabolic dysfunction with (−)-hydroxycitric acid” (priority 2001, dated 2002).

What was measured:
animals = details: 70% glucose diet, as long as 80 days
rats = details: after a three hour meal

In the case of `O=C([O-])CC(O)(C(=O)[O-])C(O)C(=O)[O-].[Na+].[Na+].[Na+]` (stereo not drawn) [trisodium salt of (−)-hydroxycitric acid], the “body weight after disappearance of appetite control” value (animals) is listed as “maintained a reduced weight”, the “contents of the stomach, % of control” value (rats) is listed as 223 % of control and the “contents of the stomach” value (rats; controls 884±145) is listed as 1973±154 dpm×10^3.
